Biological target: Matrix metalloproteinase-9 (MMP-9) (Homo sapiens, UniProt P14780)
Test: fluorogenic peptide
Assay type: biochemical

Chain of Matrix metalloproteinase-9 (MMP-9) (P14780 107-707): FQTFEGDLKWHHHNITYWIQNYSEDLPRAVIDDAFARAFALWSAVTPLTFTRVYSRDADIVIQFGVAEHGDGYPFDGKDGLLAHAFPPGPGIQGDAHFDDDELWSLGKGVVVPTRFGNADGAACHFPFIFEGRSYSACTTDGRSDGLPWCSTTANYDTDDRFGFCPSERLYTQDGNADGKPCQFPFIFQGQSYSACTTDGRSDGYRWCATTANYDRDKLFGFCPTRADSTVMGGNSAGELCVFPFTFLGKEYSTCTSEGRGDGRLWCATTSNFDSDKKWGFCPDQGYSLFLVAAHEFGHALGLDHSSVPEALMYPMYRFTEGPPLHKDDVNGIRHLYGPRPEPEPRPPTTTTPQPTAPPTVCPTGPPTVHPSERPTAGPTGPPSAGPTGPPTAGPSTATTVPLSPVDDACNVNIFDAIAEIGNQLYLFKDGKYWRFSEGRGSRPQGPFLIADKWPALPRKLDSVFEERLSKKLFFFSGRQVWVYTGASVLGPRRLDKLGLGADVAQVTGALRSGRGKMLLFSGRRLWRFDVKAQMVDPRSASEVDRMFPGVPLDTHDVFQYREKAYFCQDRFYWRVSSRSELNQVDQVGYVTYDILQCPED

IC50: 0.0119 ± 0.001 µM
Structure (SMILES): CC(C)(NS(=O)(=O)c1ccc(Oc2ccc(F)cc2)cc1)C(=O)NO [CP471474]

From PMC3482625 (Analytical chemistry, 2011)
